Experimental data taken from DBAASP.
≈ marks a conversion by molar mass, not a printed value.

Experiments:
Assay in all cases: ≥ marks a high value that may be exact or a test limit, other limits are often not marked, values filed in µg/mL are converted to µM
[1] = test system: Enterococcus faecalis VR
[2] = test system: Escherichia coli KCTC 1682
[3] = test system: Bacillus subtilis KCTC 3068
[4] = test system: Staphylococcus aureus KCTC 1621
[5] = test system: Staphylococcus aureus MR
[6] = test system: Enterococcus faecium VR
[7] = test system: Staphylococcus epidermidis KCTC 1917
[8] = test system: Pseudomonas aeruginosa KCTC 1637
[9] = test system: Enterococcus faecium
[10] = test system: Enterococcus faecalis
[11] = test system: Salmonella typhimurium KCTC 1926
[12] = test system: Staphylococcus aureus ATCC 25923
[13] = test system: Escherichia coli ATCC 25922
[14] = test system: Pseudomonas aeruginosa ATCC 15442
[15] = test system: Acinetobacter baumannii ATCC 15308
[16] = test system: Enterobacter cloacae
[17] = test system: Streptococcus pneumoniae
[18] = test system: Klebsiella pneumoniae
[19] = test system: Staphylococcus aureus
[20] = test system: Citrobacter sp.
[21] = test system: Pseudomonas aeruginosa ATCC 27853
[22] = test system: Klebsiella pneumoniae ATCC 700603
[23] = test system: Streptococcus pyogenes ATCC 19615
[24] = test system: Bacillus cereus ATCC 11778
[25] = test system: Serratia marcescens ATCC 21202
[26] = test system: Salmonella enterica subsp. enterica serovar Enteritidis ATCC 13076
[27] = test system: Staphylococcus aureus ATCC 29213
[28] = test system: Candida albicans ATCC 10231
[29] = test system: Candida glabrata ATCC 15126
[30] = test system: Streptococcus pneumoniae ATCC 49619
[31] = test system: Aspergillus niger ATCC 16404
[32] = test system: Escherichia coli ATCC 23506
[33] = test system: Staphylococcus aureus ATCC 9144
[34] = test system: Enterococcus faecalis PCM 2673
[35] = test system: Pseudomonas aeruginosa ATCC 9027
[36] = test system: Streptococcus oralis ATCC 9811
[37] = test system: Streptococcus gordonii ATCC 10558
[38] = test system: Streptococcus sanguinis ATCC 10556
[39] = test system: Candida tropicalis CGMCC 2.1975
[40] = test system: Escherichia coli EC183
[41] = test system: Candida albicans CGMCC 2.2086
[42] = test system: Candida krusei CGMCC 2.1857
[43] = test system: Salmonella enterica subsp. enterica serovar Typhimurium C77-31
[44] = test system: Staphylococcus epidermidis ATCC 12228
[45] = test system: Candida albicans CA2761
[46] = test system: Escherichia coli UB1005
[47] = test system: Bacillus subtilis CMCC 63501

CC(C)C[C@H](NC(=O)[C@H](CC(C)C)NC(=O)[C@H](CS)NC(=O)[C@H](Cc1cnc[nH]1)NC(=O)[C@H](C)NC(=O)[C@H](C)N)C(=O)N[C@@H](CCCN=C(N)N)C(=O)NCC(=O)N[C@@H](CC(N)=O)C(=O)N[C@@H](CCCN=C(N)N)C(N)=O [AAHCLLRGNR]
MIC [1]: 30 µM
MIC [2]: 15 µM
MIC [3]: 30 µM
MIC [4]: 30 µM
MIC [5]: 30 µM
MIC [6]: 30 µM
MIC [7]: 15 µM
MIC [8]: 30 µM
MIC [9]: 30 µM
MIC [10]: 30 µM
MIC [11]: 30 µM

CC[C@H](C)[C@H](NC(=O)[C@H](CC(C)C)NC(=O)CNC(=O)CNC(=O)[C@H](CC(C)C)NC(=O)[C@@H](N)Cc1ccccc1)C(=O)N[C@@H](CCCCN)C(=O)N[C@@H](Cc1c[nH]c2ccccc12)C(=O)N[C@@H](Cc1c[nH]c2ccccc12)C(=O)N1CCC[C@H]1C(=O)N[C@@H](Cc1c[nH]c2ccccc12)C(=O)N[C@@H](CCCN=C(N)N)C(=O)N[C@@H](CCCN=C(N)N)C(N)=O [FLGGLIKWWPWRR]
MIC [12]: 4.55 µM (≈ 7.81 µg/mL)
MIC [13]: 4.55 µM (≈ 7.81 µg/mL)
MIC [14]: 18.2 µM (≈ 31.2 µg/mL)
MIC [15]: 18.2 µM (≈ 31.2 µg/mL)
MIC [16]: ≥ 146 µM
MIC [17]: 4.55 µM (≈ 7.81 µg/mL)
MIC [18]: > 146 µM
MIC [19]: 4.55 µM (≈ 7.81 µg/mL)
MIC [20]: ≥ 146 µM

CC[C@H](C)[C@H](NC(=O)[C@H](CC(=O)O)NC(=O)[C@H](CCSC)NC(=O)[C@H](CC(C)C)NC(=O)CN)C(=O)N[C@@H](Cc1ccccc1)C(=O)N[C@@H](CCCCN)C(=O)N[C@H](C(=O)N[C@@H](C)C(=O)N[C@H](C(=O)N[C@@H](CC(N)=O)C(=O)N[C@@H](CCCCN)C(=O)N[C@@H](CC(C)C)C(=O)N[C@@H](CC(C)C)C(=O)N[C@@H](C)C(=O)N[C@@H](C)C(=O)NCC(=O)N[C@@H](CCSC)C(=O)N[C@@H](CC(N)=O)C(=O)N[C@@H](CCCCN)C(=O)N1CCC[C@H]1C(=O)N[C@@H](CCCN=C(N)N)C(=O)N[C@H]1CSSC[C@@H](C(=O)O)NC(=O)[C@H](Cc2cnc[nH]2)NC(=O)[C@H](C)NC(=O)[C@H](C)NC(=O)[C@H](CCCCN)NC1=O)C(C)C)C(C)C [GLMDIFKVAVNKLLAAGMNKPRCKAAHC]
MIC [21]: > 33.3 µM
MIC [13]: 9.35 µM (≈ 28 µg/mL)
MIC [22]: 9.35 µM (≈ 28 µg/mL)
MIC [23]: 17.8 µM (≈ 53.4 µg/mL)
MIC [24]: 17.8 µM (≈ 53.4 µg/mL)
MIC [25]: 9.35 µM (≈ 28 µg/mL)
MIC [26]: 17.8 µM (≈ 53.4 µg/mL)
MIC [27]: 9.35 µM (≈ 28 µg/mL)

CC[C@H](C)[C@H](NC(=O)CNC(=O)[C@H](CCCCN)NC(=O)[C@H](Cc1ccccc1)NC(=O)[C@H](CC(C)C)NC(=O)[C@H](CCCCN)NC(=O)[C@H](CCCCN)NC(=O)[C@H](C)NC(=O)[C@H](CCCCN)NC(=O)[C@H](CCCCN)NC(=O)[C@H](Cc1ccccc1)NC(=O)CNC(=O)[C@H](CCCCN)NC(=O)[C@H](C)NC(=O)[C@H](Cc1ccccc1)NC(=O)[C@@H](NC(=O)[C@H](CCCCN)NC(=O)[C@@H](NC(=O)[C@H](CC(C)C)NC(=O)[C@H](CCCCN)NC(=O)[C@@H](N)CCCCN)[C@@H](C)CC)C(C)C)C(=O)NCC(N)=O [KKLIKVFAKGFKKAKKLFKGIG]
MIC [28]: 103 µM (≈ 256 µg/mL)
MIC [12]: 51.7 µM (≈ 128 µg/mL)
MIC [13]: 3.23 µM (≈ 8 µg/mL)
MIC [22]: 0.101 µM (≈ 0.25 µg/mL)
MIC [29]: ≥ 51.7 µM
MIC [30]: 1.61 µM (≈ 4 µg/mL)
MIC [31]: 12.9 µM (≈ 32 µg/mL)
MIC [32]: 0.807 µM (≈ 2 µg/mL)
MIC [33]: 25.8 µM (≈ 64 µg/mL)
MIC [34]: 25.8 µM (≈ 64 µg/mL)
MIC [35]: 0.807 µM (≈ 2 µg/mL)

CC[C@H](C)[C@H](NC(=O)CNC(=O)CNC(=O)CNC(=O)CNC(=O)[C@H](Cc1c[nH]c2ccccc12)NC(=O)[C@@H](NC(=O)[C@H](Cc1cnc[nH]1)NC(=O)[C@H](CCSC)NC(=O)CNC(=O)[C@@H]1CCCN1C(=O)[C@H](C)NC(=O)[C@H](CC(=O)O)NC(=O)[C@@H]1CCCN1C(=O)[C@H](CC(C)C)NC(=O)[C@H](CCCCN)NC(=O)[C@@H](N)CCCN=C(N)N)[C@@H](C)O)C(=O)N[C@@H](CC(N)=O)C(=O)N[C@H](C(=O)N[C@@H](CC(C)C)C(=O)N[C@@H](CCC(N)=O)C(=O)N[C@@H](CCCCN)C(=O)N[C@@H](Cc1ccc(O)cc1)C(=O)N[C@@H](Cc1ccc(O)cc1)C(=O)N[C@@H](CS)C(=O)N[C@@H](CCCN=C(N)N)C(=O)N[C@H](C(=O)N[C@@H](CCCN=C(N)N)C(=O)NCC(=O)O)C(C)C)[C@@H](C)O [RKLPDAPGMHTWGGGGINTLQKYYCRVRG]
MIC [36]: ≥ 155 µM
MIC [37]: ≥ 186 µM
MIC [38]: ≥ 186 µM

CC[C@H](C)[C@H](NC(=O)[C@H](Cc1c[nH]c2ccccc12)NC(=O)[C@H](CCCCN)NC(=O)[C@H](CC(C)C)NC(=O)[C@@H](NC(=O)[C@H](CCCCN)NC(=O)CNC(=O)[C@@H](NC(=O)[C@H](CCCCN)NC(=O)[C@H](CCCCN)NC(=O)[C@H](CC(C)C)NC(=O)[C@H](CCCN=C(N)N)NC(=O)[C@H](CCCCN)NC(=O)[C@H](CCCN=C(N)N)NC(=O)[C@@H](N)[C@@H](C)O)[C@@H](C)CC)C(C)C)C(N)=O [TRKRLKKIGKVLKWI]
MIC [12]: 32 µM (≈ 59.7 µg/mL)
MIC [13]: 8 µM (≈ 14.9 µg/mL)
MIC [39]: 2 µM (≈ 3.73 µg/mL)
MIC [40]: 2 µM (≈ 3.73 µg/mL)
MIC [41]: ≥ 64 µM
MIC [42]: 8 µM (≈ 14.9 µg/mL)
MIC [43]: 8 µM (≈ 14.9 µg/mL)
MIC [44]: 32 µM (≈ 59.7 µg/mL)
MIC [45]: ≥ 128 µM
MIC [46]: 4 µM (≈ 7.47 µg/mL)
MIC [27]: 32 µM (≈ 59.7 µg/mL)
MIC [47]: 2 µM (≈ 3.73 µg/mL)
